In experiment [1] the test system is NF-kB luciferase promoter. The experiment in a line: NF-κB INHIBITION TEST (NF-kB luciferase reporter, TNFα-stimulated H9c2 cells). The class given is cell-based, Rat. Particulars: TNFα 100 ng/ml, versus TNFα + Vehicle (0.1% DMSO). The method, then: NFκB-INHIBITION TESTS were performed on various concentrations of 1-hydroxyl 3,5-bis(4′hydroxyl styryl)benzene and a vehicle control (DMSO). The 1-hydroxyl 3,5-bis(4′hydroxyl styryl)benzene was prepared as described in U.S. Pat. No. 7,745,670. The NF-κB INHIBITION TEST was conducted as follows. Rat cardiac myoblasts H9c2 cells were purchased from ATCC (Manassas, Va.). Cultures were maintained in Dulbecco's modified Eagle's medium (DMEM, Invitrogen Life Technologies, Carlsbad, Calif.) supplemented with 10% fetal bovine serum, 100 units/ml penicillin, and 50 ug/ml streptomycin (Invitrogen life technologies, Carlsbad, Calif.). 1×10^4 cells grown in 96-well plates were transiently transfected with 0.45 ug total DNA per well using Lipofectamine 2000 (Invitrogen life technologies, Carlsbad, Calif.). In all transfections, a construct with the thymidine kinase promoter and the Renilla luciferase reporter gene (pRL-TK, Promega, Madison Wis.) was included as an internal control in addition to the NF-kB luciferase promoter. One day after transfection, cells were treated with the indicated samples (in DMSO as vehicle) at indicated concentrations and stimulated with 100 ng/mL of Tumor Necrosis Factor-α (TNFα, Sigma-Aldrich, St Louis, Mo.) for approximately 24 hours before they were lysed for luciferase assays, using Dual-Luciferase Reporter System from Promega (Madison, Wis.), following manufacturer's protocol. Briefly, the firefly luciferase activity was measured first (representing NF-kB promoter activity), followed by the renilla luciferase (internal control), using luminometer LMAX, from Molecular Devices (Sunnyvale, Calif.). The ratio of these two luciferase activities (RLU) was used to evaluate the activity of each promoter: NF-κB Inhibition=[1−(RLUsample/RLUcontrol)]*100 where RLUsample and RLUcontrol are the normalized luciferase activity ratios of the sample and control, respectively. The results are shown in Table 1, in which NF-kB Gene Reporter Activation (Luminescence, L) is reported. Percent NF-kB Inhibition is also reported.

A further experiment has as its system Collagen1A. The experiment in a line: Induction of Collagen1A gene expression in primary human dermal fibroblasts (quantitative PCR). The class given is cell-based. To be noted: for Collagen1A Normalized Fold-change in PCR (Mean): 0.1 ug/mL, 48 hr, normalized to GAPDH, from untreated. The method, then: (§1) Primary human dermal fibroblasts (Lifeline Cell Technologies, Frederick, Md.) were grown until confluence in DMEM media (Invitrogen/Life Technologies, Carlsbad, Calif.) with 10% FBS and 1% Penicillin-Streptomycin on 24 well tissue culture plates, followed by treatment with 1-hydroxyl 3,5-bis(4′hydroxyl styryl)benzene (0.1 ug/mL) with and without TNF-a for 48 hr. Post-treatment, cells were lysed using RLT buffer and total RNA was isolated using the RNeasy Mini Kit (Qiagen, Valencia, Calif.). Quantitative PCR was performed using the Gene Amp PCR System 9700 and 7500 Real Time PCR System cycler (Applied Biosystems)/Life Technologies, Carlsbad, Calif.). Elastin (Qiagen) and Collagenlal primers (custom sequence-sense: 5′-TCC-CCA-GCT-GTC-TTA-TGG-CT-3′ and anti-sense: 5′-CAG-GCA-CGG-AAA-TTC-CTC-C-3′) were used. The housekeeping gene GAPDH was used for normalization (custom primer sequence: F 5′-ATC-TCT-GCC-CCC-TCT-GCT-G-3′ and R 5′-ATG-GTT-CAC-ACC-CAT-GAC-GA-3′; Invitrogen/Life Technologies, Carlsbad, Calif.). Fold-changes in PCR (normalized to GAPDH) were calculated from untreated.

A further experiment relates to IL-8 cytokine release. The experiment in a line: Anti-inflammatory activity: IL-8 cytokine release from epidermal equivalents after solar UV exposure. The class given is cell-based, human. Particulars: for Change over vehicle alone (Normalized to 100) / % inhibition over UV treatment: IL-8 release; for Change over vehicle alone (Normalized to 100): 2 h before UV 70 kJ/m^2, 24 hours; for % inhibition over UV treatment: UV-exposed epidermal equivalents; for UV-induced inflammation (result in words): summary of Table 2. The method, then: The topical anti-inflammatory activities of 1-hydroxyl 3,5-bis(4′hydroxyl styryl)benzene and its piperazine salt were evaluated as follows.
Epidermal equivalents (EPI 200 HCF), multilayer and differentiated epidermis consisting of normal human epidermal keratinocytes, were purchased from MatTek (Ashland, Mass.). Upon receipt, epidermal equivalents were incubated for 24 hours at 37° C. in maintenance medium without hydrocortisone. Equivalents were topically treated (2 mg/cm^2) with 1-hydroxyl 3,5-bis(4′hydroxyl styryl)benzene thereof in a 70:30 Ethanol-Propylene glycol vehicle two hours before exposure to solar ultraviolet light (1000W-Oriel solar simulator equipped with a 1-mm Schott WG 320 filter; UV dose applied: 70 kJ/m^2 as measured at 360 nm). The equivalents were incubated for 24 hours at 37° C. with maintenance medium then supernatants were analyzed for IL-8 cytokine release using commercially available kits (Millipore Corp., Billerica, Mass.).

In a further experiment the test system is MMP-9. The experiment in a line: Inhibition of TNF-α-induced MMP-9 levels in epidermal equivalents. The class given is cell-based, human. Particulars: for Mean of MMP-9 Release: 2 hours before TNF-α (100 ng/mL), 48 hours. The method, then:
The ability of 1-hydroxyl 3,5-bis(4′hydroxyl styryl)benzene to inhibit TNF-a induced MMP-9 levels was tested at different concentrations as follows. The formation of TNF-α induced MMP-9 is involved in the undesirable breakdown of extracellular matrix in human skin.
Epidermal equivalents (EPI 200 HCF) were purchased from MatTek (Ashland, Mass.). Upon receipt, the epidermal equivalents were incubated for 24 hours at 37° C. in maintenance medium without hydrocortisone. The equivalents were topically treated (2 mg/cm^2) with 1-hydroxyl 3,5-bis(4′hydroxyl styryl)benzene extracts in a 70% ethanol/30% propylene glycol vehicle 2 hours before treatment with TNF-α (100 ng/mL). the equivalents were incubated for 48 hours at 37° C. with maintenance medium then supernatants were analyzed for MMP-9 using commercially available kits (R&D Systems, Minneapolis, Minn.).

The test system of another experiment is Elastin. The experiment in a line: Induction of Elastin gene expression in primary human dermal fibroblasts (quantitative PCR). The class given is cell-based. Particulars: for Elastin Normalized Fold-change in PCR (Mean): 0.1 ug/mL, 48 hr, normalized to GAPDH, from untreated. Here is the method:
as §1

[2] abbreviates: 0.5% topical (2 mg/cm^2) in 70:30 Ethanol-Propylene glycol.
Where [3] appears, read: 1% topical (2 mg/cm^2) in 70:30 Ethanol-Propylene glycol.

Consider `Oc1ccc(/C=C/c2cc(O)cc(/C=C/c3ccc(O)cc3)c2)cc1` [1-Hydroxyl 3,5-bis(4′hydroxylstyryl)benzene], for which the “Percent NF-kB Inhibition” value amounted to 0.5% in experiment [1] (0.2 ug/ml); 22.1% in experiment [1] (0.5 ug/ml); 51.7% in experiment [1] (1 ug/ml); 71.0% in experiment [1] (2 ug/ml); 96.1% in experiment [1] (4 ug/ml). For the same compound, the entries for the “Collagen1A Normalized Fold-change in PCR (Mean)” value with Collagen1A (with TNF-α (10 ng/mL)) and in the experiment with Collagen1A (without TNF-α) were 1.36 and 2.96, respectively. In addition, in the experiment on Collagen1A (summary of Tables 3A and 3B), the “expression of genes associated with collagen production (result in words)” value was “increased the expression of genes associated with collagen and elastin production”. Also, the “Change over vehicle alone (Normalized to 100)” value came out at 82 ± 21 in the experiment on IL-8 cytokine release (setting [2]) and 80 ± 26 in the experiment with IL-8 cytokine release (setting [3]). Moreover, the “% inhibition over UV treatment” value in the experiment with IL-8 cytokine release (0.5% topical) turned out to be 39%; in the experiment with IL-8 cytokine release (1% topical), 40%. Moreover, the “UV-induced inflammation (result in words)” value in the experiment with IL-8 cytokine release is listed as “strong reduction in UV-induced inflammation”. The “Mean of MMP-9 Release” value came out at 1392 ± 627 ng/mL in the experiment on MMP-9 (0.25% w/v topical (2 mg/cm^2)) and 1012 ± 249 ng/mL in the experiment on MMP-9 (0.5% w/v topical (2 mg/cm^2)). In addition, the inhibition (in general, the drop in the measured response relative to a control, in per cent) at 0.25 % strength in the experiment with MMP-9 (Homo sapiens, 0.25% w/v topical, TNF-α 100 ng/mL, read-out: Percent Inhibition of MMP-9 Production (over TNF-α alone)) worked out at 60.9%. Further, in the experiment on MMP-9 (Homo sapiens, 0.5% w/v topical, TNF-α 100 ng/mL, read-out: Percent Inhibition of MMP-9 Production (over TNF-α alone)), the inhibition at 0.5 % strength came to 71.6%. For the same compound, in the experiment on MMP-9 (summary of Table 4), the “formation of TNF-α induced MMP-9 (result in words)” value is recorded as “inhibited the formation of TNF-α induced MMP-9”. The “Elastin Normalized Fold-change in PCR (Mean)” value with Elastin (with TNF-α (10 ng/mL)) is 1.12; with Elastin (without TNF-α), 6.23. In addition, the “expression of genes associated with elastin production (result in words)” value in the experiment with Elastin (summary of Tables 3A and 3B) was “increased the expression of genes associated with collagen and elastin production”.

On to `Oc1ccc(C=Cc2cc(O)cc(C=Cc3ccc(O)cc3)c2)cc1` [1-hydroxyl 3,5-bis(4′hydroxylstyryl)benzene], for which the “Change over vehicle alone (Normalized to 100)” value in the experiment with IL-8 cytokine release (setting [2]) is recorded as 85 ± 14; in the experiment with IL-8 cytokine release (setting [3]), 81 ± 31. In addition, the “% inhibition over UV treatment” value is 37% in the experiment on IL-8 cytokine release (0.5% topical) and 40% in the experiment with IL-8 cytokine release (1% topical). In addition, in the experiment on IL-8 cytokine release, the “UV-induced inflammation (result in words)” value is “strong reduction in UV-induced inflammation”.

The values are drawn from patent US20140005275A1, “TOPICAL APPLICATION OF 1-HYDROXYL 3,5-BIS(4'HYDROXYL STYRYL)BENZENE” (priority 2012, published 2014).
